Results taken from patent US11566007B2, “Ras inhibitors” (Revolution Medicines, Inc., priority 2019, dated 2023).
Values joined by “and” are separate entries in the source; they are usually repeats but may differ in a detail not shown here. Identical values can stand only once. Like-named read-outs stand apart in the source and are kept apart here.

What was measured:
[1] = system: NCI-H358 cells (K-Ras G12C); test: Potency assay: pERK in NCI-H358 cells; format: cell-based, human; conditions: Homo sapiens, NCI-H358; H358 KRAS G12C; read-out: pERK EC50
Method in brief: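 Inhibition of cellular pERK after a 4 h treatment, detected by AlphaLISA or In-Cell Western. IC50 from a four-parameter concentration-response fit.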

NCI-H358 (K-Ras G12C) = test: CellTiter-Glo cell viability assay, NCI-H358; format: cell-based, human; conditions: NCI-H358, 5-day treatment, class symbols, read-out: Additional H358 Cell Viability assay data (K-Ras G12C, IC50)
Method in brief: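 Compounds were dispensed directly onto K-Ras mutant cells and incubated until day 5, then plates were equilibrated to room temperature for about 30 minutes before CellTiter-Glo luminescence. Signals were normalized as (sample/average DMSO)*100 and fitted by four-parameter logistic fit.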

K-Ras G12C = K-Ras G12C (Homo sapiens (Human), UniProt P01116+P62937, G12C); test: Ras-Raf (BRAF RBD) disruption / FRET / MOA assay, KRAS G12C; format: biochemical; conditions: KRAS G12C; Ras-Raf disruption/FRET/MOA assay; read-out: IC50* KRAS G12C FRET data
Method in brief: (§1)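 Compounds, top final concentration 30 μM in 10-point 3-fold series, incubated 3 hours at 25° C with nucleotide-loaded Ras, cyclophilin A and BRAF RBD.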

K-Ras G13C = K-Ras G13C (Homo sapiens (Human), UniProt P01116+P62937, G13C); test: Ras-Raf (BRAF RBD) disruption / FRET / MOA assay, KRAS G13C; format: biochemical; conditions: KRAS G13C; Ras-Raf disruption/FRET/MOA assay; read-out: IC50* KRAS G13C FRET data
Method in brief: as §1

KRAS G12S = KRAS G12S (Homo sapiens (Human), UniProt P01116+P62937, G12S); test: Ras-Raf (BRAF RBD) disruption / FRET / MOA assay, KRAS G12S; format: biochemical; conditions: Ras-Raf disruption/FRET/MOA assay; class symbols; read-out: KRAS G12S FRET data IC50
Method in brief: as §1

KRAS G12D = KRAS G12D (Homo sapiens (Human), UniProt P01116+P62937, G12D); test: Ras-Raf (BRAF RBD) disruption / FRET / MOA assay, KRAS G12D; format: biochemical; conditions: Ras-Raf disruption/FRET/MOA assay; class symbols; read-out: KRAS G12D FRET data IC50
Method in brief: as §1

KRAS G12V = KRAS G12V (Homo sapiens (Human), UniProt P01116+P62937, G12V); test: Ras-Raf (BRAF RBD) disruption / FRET / MOA assay, KRAS G12V; format: biochemical; conditions: read-out: IC50* KRAS G12V FRET data
Method in brief: as §1

KRAS WT = KRAS WT (Homo sapiens (Human), UniProt P01116+P62937); test: Ras-Raf (BRAF RBD) disruption / FRET / MOA assay, KRAS WT; format: biochemical; conditions: read-out: IC50* KRAS WT FRET data
Method in brief: as §1

KRAS G13D = KRAS G13D (Homo sapiens (Human), UniProt P01116+P62937, G13D); test: Ras-Raf (BRAF RBD) disruption / FRET / MOA assay, KRAS G13D; format: biochemical; conditions: read-out: IC50* KRAS G13D FRET data
Method in brief: as §1

NRAS G12C = NRAS G12C (Homo sapiens (Human), UniProt P01111+P62937, G12C); test: Ras-Raf (BRAF RBD) disruption / FRET / MOA assay, NRAS G12C; format: biochemical; conditions: read-out: IC50* NRAS G12C FRET data
Method in brief: as §1

K-Ras G13C, sequence (P01116-2 other isoform, or with tags, fused parts or gaps G13C): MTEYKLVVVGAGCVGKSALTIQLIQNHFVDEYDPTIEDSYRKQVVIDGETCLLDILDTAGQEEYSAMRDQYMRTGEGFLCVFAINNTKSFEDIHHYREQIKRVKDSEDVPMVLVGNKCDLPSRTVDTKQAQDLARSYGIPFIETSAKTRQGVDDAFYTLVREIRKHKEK
K-Ras G13C, sequence (P62937 whole entry): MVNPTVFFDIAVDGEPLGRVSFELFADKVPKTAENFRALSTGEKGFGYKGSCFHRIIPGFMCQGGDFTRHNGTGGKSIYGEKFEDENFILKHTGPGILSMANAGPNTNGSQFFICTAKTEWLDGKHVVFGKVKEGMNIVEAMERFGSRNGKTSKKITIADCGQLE
NRAS G12C, sequence (P01111 whole entry G12C): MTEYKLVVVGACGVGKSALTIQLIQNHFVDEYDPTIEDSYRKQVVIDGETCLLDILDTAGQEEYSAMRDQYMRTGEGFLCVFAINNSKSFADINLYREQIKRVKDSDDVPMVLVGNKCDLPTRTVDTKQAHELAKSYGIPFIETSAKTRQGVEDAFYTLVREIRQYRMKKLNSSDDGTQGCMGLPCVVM
NRAS G12C, sequence (P62937 whole entry): as the sequence (P62937 whole entry) above
KRAS G12S, sequence (P01116-2 other isoform, or with tags, fused parts or gaps G12S): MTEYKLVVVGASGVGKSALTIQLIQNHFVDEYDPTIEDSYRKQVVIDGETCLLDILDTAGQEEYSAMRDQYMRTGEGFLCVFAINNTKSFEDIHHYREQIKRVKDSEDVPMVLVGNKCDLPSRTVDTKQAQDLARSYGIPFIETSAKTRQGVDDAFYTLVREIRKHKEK
KRAS G12S, sequence (P62937 whole entry): as the sequence (P62937 whole entry) above
KRAS G13D, sequence (P01116-2 other isoform, or with tags, fused parts or gaps G13D): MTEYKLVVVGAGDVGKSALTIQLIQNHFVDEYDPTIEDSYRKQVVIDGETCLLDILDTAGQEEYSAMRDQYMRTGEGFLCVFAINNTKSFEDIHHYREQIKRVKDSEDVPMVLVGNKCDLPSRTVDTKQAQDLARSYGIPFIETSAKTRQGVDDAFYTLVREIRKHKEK
KRAS G13D, sequence (P62937 whole entry): as the sequence (P62937 whole entry) above
KRAS G12V, sequence (P01116-2 other isoform, or with tags, fused parts or gaps G12V): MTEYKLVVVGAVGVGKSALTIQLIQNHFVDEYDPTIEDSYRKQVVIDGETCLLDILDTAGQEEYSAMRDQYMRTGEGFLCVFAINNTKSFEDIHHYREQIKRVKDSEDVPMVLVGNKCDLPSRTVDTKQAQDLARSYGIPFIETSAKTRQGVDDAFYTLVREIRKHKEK
KRAS G12V, sequence (P62937 whole entry): as the sequence (P62937 whole entry) above
K-Ras G12C, sequence (P01116-2 other isoform, or with tags, fused parts or gaps G12C): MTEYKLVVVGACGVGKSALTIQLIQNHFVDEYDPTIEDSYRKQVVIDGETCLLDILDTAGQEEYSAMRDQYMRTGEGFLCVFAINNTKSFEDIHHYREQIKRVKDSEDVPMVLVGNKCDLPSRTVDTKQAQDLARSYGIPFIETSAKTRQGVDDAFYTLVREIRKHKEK
K-Ras G12C, sequence (P62937 whole entry): as the sequence (P62937 whole entry) above
KRAS WT, sequence (P01116-2 other isoform, or with tags, fused parts or gaps): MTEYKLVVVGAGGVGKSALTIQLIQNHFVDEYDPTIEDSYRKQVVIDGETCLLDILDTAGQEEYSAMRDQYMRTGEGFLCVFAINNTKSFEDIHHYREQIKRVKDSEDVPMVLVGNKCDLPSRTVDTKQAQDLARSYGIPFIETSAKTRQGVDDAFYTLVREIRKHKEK
KRAS WT, sequence (P62937 whole entry): as the sequence (P62937 whole entry) above
KRAS G12D, sequence (P01116-2 other isoform, or with tags, fused parts or gaps G12D): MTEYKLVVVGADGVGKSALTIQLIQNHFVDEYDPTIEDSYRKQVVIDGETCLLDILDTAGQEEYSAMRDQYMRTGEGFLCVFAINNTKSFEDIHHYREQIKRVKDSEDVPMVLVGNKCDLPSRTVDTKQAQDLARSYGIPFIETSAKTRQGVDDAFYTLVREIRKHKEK
KRAS G12D, sequence (P62937 whole entry): as the sequence (P62937 whole entry) above

**Q.** C=CC(=O)N1CC[C@H](C(=O)N(C)[C@H](C(=O)N[C@H]2Cc3cc(O)cc(c3)-c3ccc4c(c3)c(c(-c3cnccc3[C@H](CC)OC)n4CC)CC(C)(C)COC(=O)[C@@H]3CCCN(N3)C2=O)C(C)C)C1 (atropisomer, axis not shown) [Example A194] was tested. Which EC50 [1] did it give?
**A.** < 5 µM

**Q.** What about the IC50 (NCI-H358 (K-Ras G12C); Homo sapiens, NCI-H358, 120 h) of the same compound?
**A.** 0.01 to 0.1 µM

**Q.** What about the IC50 (NCI-H358 (K-Ras G12C)) of the same compound?
**A.** < 0.01 µM

**Q.** And the IC50 (K-Ras G12C)?
**A.** 0.1 to 1 µM and < 0.01 µM

**Q.** And the IC50 (K-Ras G13C)?
**A.** 0.01 to 0.1 µM and 1 to 10 µM

**Q.** What about the IC50 (KRAS G12S) of the same compound?
**A.** 0.1 to 1 µM and 0.01 to 0.1 µM

**Q.** And the IC50 (KRAS G12D)?
**A.** 1 to 10 µM and 0.1 to 1 µM

**Q.** And the IC50 (KRAS G12V)?
**A.** 0.1 to 1 µM and 0.01 to 0.1 µM

**Q.** And the IC50 (KRAS WT)?
**A.** 1 to 10 µM and 0.01 to 0.1 µM

**Q.** And the IC50 (KRAS G13D)?
**A.** 0.1 to 1 µM and 1 to 10 µM

**Q.** And the IC50 (NRAS G12C)?
**A.** 0.1 to 1 µM and < 0.01 µM

**Q.** Which results are given for CCn1c(-c2cccnc2[C@H](C)OC)c2c3cc(ccc31)-c1nsc(n1)C[C@H](NC(=O)[C@H](C(C)C)N(C)C(=O)[C@H]1CCN(C(=O)C#CCN3CCOCC3)C1)C(=O)N1CCC[C@H](N1)C(=O)OCC(C)(C)C2 (atropisomer, axis not shown) [Example A201]?
**A.** EC50 [1]: < 5 µM; IC50 (NCI-H358 (K-Ras G12C); Homo sapiens, NCI-H358, 120 h): 0.01 to 0.1 µM; IC50 (K-Ras G12C): 0.01 to 0.1 µM; IC50 (K-Ras G13C): 1 to 10 µM; IC50 (KRAS G12S): > 10 µM; IC50 (KRAS G12D): > 10 µM; IC50 (KRAS G12V): > 10 µM; IC50 (KRAS WT): > 10 µM; IC50 (KRAS G13D): > 10 µM; IC50 (NRAS G12C): 0.1 to 1 µM

**Q.** How did the EC50 [1] turn out when C=CC(=O)N1CC[C@H](C(=O)N(C)[C@H](C(=O)NN2Cc3cc(O)cc(c3)-c3ccc4c(c3)c(c(-c3cccnc3[C@H](C)OC)n4CC)CC(C)(C)COC(=O)[C@@H]3CCCN(N3)C2=O)C(C)C)C1 (atropisomer, axis not shown) [Example A233] was run?
**A.** < 5 µM

**Q.** What about the IC50 (NCI-H358 (K-Ras G12C); Homo sapiens, NCI-H358, 120 h) of the same compound?
**A.** 0.01 to 0.1 µM

**Q.** And the IC50 (K-Ras G12C)?
**A.** 0.01 to 0.1 µM

**Q.** What about the IC50 (K-Ras G13C) of the same compound?
**A.** 0.01 to 0.1 µM

**Q.** What about the IC50 (KRAS G12S) of the same compound?
**A.** 0.01 to 0.1 µM

**Q.** And the IC50 (KRAS G12D)?
**A.** 0.1 to 1 µM

**Q.** And the IC50 (KRAS G12V)?
**A.** 0.01 to 0.1 µM

**Q.** And the IC50 (KRAS WT)?
**A.** 0.01 to 0.1 µM

**Q.** And the IC50 (KRAS G13D)?
**A.** 0.1 to 1 µM

**Q.** And the IC50 (NRAS G12C)?
**A.** 0.01 to 0.1 µM

**Q.** CCn1c(-c2cccnc2[C@H](C)OC)c2c3cc(ccc31)-c1cc(O)cc(c1)C[C@H](NC(=O)[C@H](C(C)C)N(C)C(=O)[C@H]1CCN(C(=O)C#CCN3[C@@H](C)COC[C@@H]3C)C1)C(=O)N1CCC[C@H](N1)C(=O)OCC(C)(C)C2 (atropisomer, axis not shown) [Example A244] was tested. Which EC50 [1] did it give?
**A.** < 5 µM

**Q.** What about the IC50 (NCI-H358 (K-Ras G12C); Homo sapiens, NCI-H358, 120 h) of the same compound?
**A.** < 0.01 µM

**Q.** And the IC50 (K-Ras G12C)?
**A.** < 0.01 µM

**Q.** And the IC50 (K-Ras G13C)?
**A.** 0.01 to 0.1 µM

**Q.** What about the IC50 (KRAS G12S) of the same compound?
**A.** 0.1 to 1 µM

**Q.** What about the IC50 (KRAS G12D) of the same compound?
**A.** 1 to 10 µM

**Q.** What about the IC50 (KRAS G12V) of the same compound?
**A.** 0.1 to 1 µM

**Q.** And the IC50 (KRAS WT)?
**A.** 0.1 to 1 µM

**Q.** What about the IC50 (KRAS G13D) of the same compound?
**A.** 0.1 to 1 µM

**Q.** And the IC50 (NRAS G12C)?
**A.** < 0.01 µM

**Q.** For CCn1c(-c2cccnc2[C@H](C)OC)c2c3cc(ccc31)-c1cc(O)cc(c1)C[C@H](NC(=O)[C@H](C(C)C)N(C)C(=O)[C@H]1CCN(C(=O)C#CCN3[C@H](C)COC[C@@H]3C)C1)C(=O)N1CCC[C@H](N1)C(=O)OCC(C)(C)C2 (atropisomer, axis not shown) [Example A245], which EC50 [1] is on record?
**A.** < 5 µM

**Q.** What about the IC50 (NCI-H358 (K-Ras G12C); Homo sapiens, NCI-H358, 120 h) of the same compound?
**A.** < 0.01 µM

**Q.** What about the IC50 (K-Ras G12C) of the same compound?
**A.** < 0.01 µM

**Q.** And the IC50 (K-Ras G13C)?
**A.** 0.01 to 0.1 µM

**Q.** And the IC50 (KRAS G12S)?
**A.** 0.1 to 1 µM

**Q.** And the IC50 (KRAS G12D)?
**A.** 1 to 10 µM

**Q.** And the IC50 (KRAS G12V)?
**A.** 0.01 to 0.1 µM

**Q.** What about the IC50 (KRAS WT) of the same compound?
**A.** 0.1 to 1 µM

**Q.** What about the IC50 (KRAS G13D) of the same compound?
**A.** 0.1 to 1 µM

**Q.** And the IC50 (NRAS G12C)?
**A.** < 0.01 µM

**Q.** CCn1c(-c2cccnc2[C@H](C)OC)c2c3cc(ccc31)-c1cc(O)cc(c1)C[C@H](NC(=O)[C@H](C(C)C)N(C)C(=O)[C@H]1CCN(C(=O)C#C[C@@H]3CCCN3C)C1)C(=O)N1CCC[C@H](N1)C(=O)OCC(C)(C)C2 (atropisomer, axis not shown) [Example A247] was tested. Which EC50 [1] did it give?
**A.** < 5 µM

**Q.** And the IC50 (NCI-H358 (K-Ras G12C); Homo sapiens, NCI-H358, 120 h)?
**A.** 0.01 to 0.1 µM

**Q.** And the IC50 (K-Ras G12C)?
**A.** < 0.01 µM

**Q.** What about the IC50 (K-Ras G13C) of the same compound?
**A.** 0.01 to 0.1 µM and < 0.01 µM

**Q.** And the IC50 (KRAS G12S)?
**A.** 0.1 to 1 µM and 1 to 10 µM

**Q.** And the IC50 (KRAS G12D)?
**A.** 1 to 10 µM and 0.1 to 1 µM

**Q.** And the IC50 (KRAS G12V)?
**A.** 0.1 to 1 µM and 1 to 10 µM

**Q.** What about the IC50 (KRAS WT) of the same compound?
**A.** 0.1 to 1 µM and 1 to 10 µM

**Q.** What about the IC50 (KRAS G13D) of the same compound?
**A.** 0.1 to 1 µM and 1 to 10 µM

**Q.** And the IC50 (NRAS G12C)?
**A.** < 0.01 µM

**Q.** How did the EC50 [1] turn out when CCn1c(-c2cccnc2[C@H](C)OC)c2c3cc(ccc31)-c1cc(O)cc(c1)C[C@H](NC(=O)[C@H](C(C)C)N(C)C(=O)c1ccc(NC(=O)/C=C/CN(C)C)nc1)C(=O)N1CCC[C@H](N1)C(=O)OCC(C)(C)C2 (atropisomer, axis not shown) [Example A249] was run?
**A.** < 5 µM

**Q.** What about the IC50 (NCI-H358 (K-Ras G12C); Homo sapiens, NCI-H358, 120 h) of the same compound?
**A.** 0.1 to 1 µM

**Q.** What about the IC50 (K-Ras G12C) of the same compound?
**A.** 0.1 to 1 µM

**Q.** What about the IC50 (K-Ras G13C) of the same compound?
**A.** 0.01 to 0.1 µM

**Q.** What about the IC50 (KRAS G12S) of the same compound?
**A.** 1 to 10 µM

**Q.** What about the IC50 (KRAS G12D) of the same compound?
**A.** > 10 µM

**Q.** What about the IC50 (KRAS G12V) of the same compound?
**A.** 1 to 10 µM

**Q.** And the IC50 (KRAS WT)?
**A.** 1 to 10 µM

**Q.** And the IC50 (KRAS G13D)?
**A.** 1 to 10 µM

**Q.** What about the IC50 (NRAS G12C) of the same compound?
**A.** 0.1 to 1 µM
